In the experiment the target is T1, IKZF2 (Homo sapiens, UniProt Q96SW2+Q9UKS7).
T1 construct: host or cells: Jurkat-IKZF2-HiBiT
Put plainly: IKZF2 HiBiT degradation assay (Jurkat-IKZF2-HiBiT). It counts as cell-based. To be noted: for DC50: read-out: IKZF2 degradation DC50; for Dmax: read-out: IKZF2 degradation Dmax (%). On the procedure: Degradation of IKZF2 protein was determined by IKZF2 HiBiT assay using the Jurkat-IKZF2-HiBiT (Promega) cell line. […] Compounds were serially diluted in culture medium, and 20 μl of the diluted compounds were added to the appropriate wells of the plate. After the addition of compounds, the cells were incubated at 37° C. in an atmosphere of 5% CO2 for 24 hours. At the end of treatment, 40 ul of Nano-Glo HiBiT Lytic Detection Reagent (Promega) was added to each well, and then the plates were incubated at room temperature for 10-20 minutes. The luminescent signal was measured using a CALRIOstar plate reader (BMG Labtech). The readings were normalized to the DMSO-treated cells and the IC50 was calculated by nonlinear regression (four parameters sigmoid fitted with variable slope, least squares fit, and no constraint) analysis using the GraphPad Prism 8 software.
(HiBiT is a short tag that completes a luciferase, so light tracks the accessible tagged protein.)

[1] abbreviates: Jurkat-IKZF2-HiBiT cells, 24 hours.

Among the data in patent US20260265271A1, “Cereblon Ligands and Uses Thereof” (REGENTS OF THE UNIVERSITY OF MICHIGAN, priority 2022, published 2026) are DC50 and Dmax values, retold here.

Structures are written as SMILES. Read-outs that look alike come from different tables or passages of the source.

T1 sequence (Q9UKS7 whole entry): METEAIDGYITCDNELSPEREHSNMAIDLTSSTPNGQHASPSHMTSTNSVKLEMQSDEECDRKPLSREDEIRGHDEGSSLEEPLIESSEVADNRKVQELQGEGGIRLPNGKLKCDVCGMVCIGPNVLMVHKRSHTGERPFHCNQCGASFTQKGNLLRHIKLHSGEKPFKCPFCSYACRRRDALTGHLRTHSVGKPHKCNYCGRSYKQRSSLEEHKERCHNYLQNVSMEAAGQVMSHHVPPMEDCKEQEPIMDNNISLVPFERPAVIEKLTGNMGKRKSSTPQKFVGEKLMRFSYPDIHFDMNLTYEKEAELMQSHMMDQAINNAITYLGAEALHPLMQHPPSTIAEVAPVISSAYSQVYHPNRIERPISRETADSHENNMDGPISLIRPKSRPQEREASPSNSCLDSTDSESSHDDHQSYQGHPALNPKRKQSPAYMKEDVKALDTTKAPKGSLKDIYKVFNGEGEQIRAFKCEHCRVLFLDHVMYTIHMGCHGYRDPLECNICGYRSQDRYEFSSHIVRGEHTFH
T1 sequence (Q96SW2 whole entry): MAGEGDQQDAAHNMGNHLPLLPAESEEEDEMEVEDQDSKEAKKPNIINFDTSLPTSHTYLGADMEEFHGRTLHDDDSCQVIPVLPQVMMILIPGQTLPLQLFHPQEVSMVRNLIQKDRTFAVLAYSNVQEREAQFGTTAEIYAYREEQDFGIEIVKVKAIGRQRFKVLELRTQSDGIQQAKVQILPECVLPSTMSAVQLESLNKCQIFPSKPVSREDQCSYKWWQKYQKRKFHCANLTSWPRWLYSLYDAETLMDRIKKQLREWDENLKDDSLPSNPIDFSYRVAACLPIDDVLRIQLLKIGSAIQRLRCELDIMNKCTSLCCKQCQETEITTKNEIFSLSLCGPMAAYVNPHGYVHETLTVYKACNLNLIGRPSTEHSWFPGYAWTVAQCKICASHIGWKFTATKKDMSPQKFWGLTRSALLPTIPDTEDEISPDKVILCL
T1 sequence (Q16531 2-1140 partner limits assumed): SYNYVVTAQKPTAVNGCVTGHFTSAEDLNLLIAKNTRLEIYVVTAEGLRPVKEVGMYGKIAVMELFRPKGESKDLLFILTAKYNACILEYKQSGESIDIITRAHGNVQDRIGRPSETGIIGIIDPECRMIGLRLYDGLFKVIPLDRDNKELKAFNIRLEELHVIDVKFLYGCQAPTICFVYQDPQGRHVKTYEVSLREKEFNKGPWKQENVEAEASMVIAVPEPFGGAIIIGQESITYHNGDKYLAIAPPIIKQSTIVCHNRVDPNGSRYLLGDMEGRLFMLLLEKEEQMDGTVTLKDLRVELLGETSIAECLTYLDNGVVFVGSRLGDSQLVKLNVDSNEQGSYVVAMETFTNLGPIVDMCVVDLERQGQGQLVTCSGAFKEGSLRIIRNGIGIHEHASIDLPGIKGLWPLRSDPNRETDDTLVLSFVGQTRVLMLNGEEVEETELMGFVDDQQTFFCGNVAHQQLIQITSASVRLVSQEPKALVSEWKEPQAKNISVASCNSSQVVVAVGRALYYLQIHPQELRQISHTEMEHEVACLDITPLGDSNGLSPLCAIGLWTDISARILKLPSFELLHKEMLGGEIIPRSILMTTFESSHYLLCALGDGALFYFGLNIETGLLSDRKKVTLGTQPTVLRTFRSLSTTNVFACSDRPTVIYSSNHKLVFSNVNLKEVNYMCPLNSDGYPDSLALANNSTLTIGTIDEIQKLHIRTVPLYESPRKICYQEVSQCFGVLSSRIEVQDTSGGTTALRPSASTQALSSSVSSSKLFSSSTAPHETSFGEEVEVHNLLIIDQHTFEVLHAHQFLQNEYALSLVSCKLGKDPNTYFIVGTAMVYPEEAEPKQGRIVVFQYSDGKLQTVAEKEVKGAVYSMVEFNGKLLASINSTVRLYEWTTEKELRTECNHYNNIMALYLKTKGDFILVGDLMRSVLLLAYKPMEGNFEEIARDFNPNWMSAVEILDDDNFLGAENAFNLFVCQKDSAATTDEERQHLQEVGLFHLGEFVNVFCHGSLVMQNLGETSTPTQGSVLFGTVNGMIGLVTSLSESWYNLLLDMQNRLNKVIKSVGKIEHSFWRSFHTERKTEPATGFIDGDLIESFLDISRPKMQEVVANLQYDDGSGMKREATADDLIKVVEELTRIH

As to `COc1ccc(C(=O)N(C)c2cccc(CN3CCN4c5cc6c(cc5OC[C@@H]4C3)C(=O)N([C@H]3CCC(=O)NC3=O)C6)c2)cc1` [Compound C27, N-(3-(((S)-9-((S)-2,6-dioxopiperidin-3-yl)-8-oxo-1,2,4a,5,9,10-hexahydro-8H-pyrazino[1′,2′:4,5][1,4]oxazino[2,3-f]isoindol-3(4H)-yl)methyl)phenyl)-4-methoxy-N-methylbenzamide], the Dmax – broadly, the greatest extent of degradation seen – amounted to 21%. Besides, the DC50 – broadly, the concentration giving 50% degradation – under setting [1] was above 10000 nM.

On to `C[C@H]1CC[C@H](CN2CCN3c4cc5c(cc4OC[C@@H]3C2)C(=O)N([C@H]2CCC(=O)NC2=O)C5)CC1` [Compound C33, (S)-3-((S)-3-(((1r,4S)-4-methylcyclohexyl)methyl)-8-oxo-1,2,3,4,4a,5,8,10-octahydro-9H-pyrazino[1′,2′:4,5][1,4]oxazino[2,3-f]isoindol-9-yl)piperidine-2,6-dione], for which the Dmax is 67%. Further, the DC50 under setting [1] was found to be 515 nM.

For the molecule `CC(=O)Nc1cccc(CN2CCN3c4cc5c(cc4OC[C@@H]3C2)C(=O)N([C@H]2CCC(=O)NC2=O)C5)c1` [Compound C26, N-(3-(((S)-9-((S)-2,6-dioxopiperidin-3-yl)-8-oxo-1,2,4a,5,9,10-hexahydro-8H-pyrazino[1′,2′:4,5][1,4]oxazino[2,3-f]isoindol-3(4H)-yl)methyl)phenyl)acetamide], the Dmax came to 33%. Besides, under setting [1], the half-maximal degradation concentration (DC50) is above 1000 nM.

Take `O=C1CC[C@H](N2Cc3cc4c(cc3C2=O)OC[C@@H]2CN(CC3CC5CCC3C5)CCN42)C(=O)N1` (stereo partly drawn) [Compound C36, (3S)-3-((4aS)-3-(bicyclo[2.2.1]heptan-2-ylmethyl)-8-oxo-1,2,3,4,4a,5,8,10-octahydro-9H-pyrazino[1′,2′:4,5][1,4]oxazino[2,3-f]isoindol-9-yl)piperidine-2,6-dione]: the Dmax is 68%. The DC50 under setting [1] was 376 nM.

As for `COc1ccc(C(=O)Nc2cccc(CN3CCN4c5cc6c(cc5OC[C@H]4C3)C(=O)N(C3CCC(=O)NC3=O)C6)c2)cc1` (stereo partly drawn) [Compound C22, N-(3-(((4aR)-9-(2,6-dioxopiperidin-3-yl)-8-oxo-1,2,4a,5,9,10-hexahydro-8H-pyrazino[1′,2′:4,5][1,4]oxazino[2,3-f]isoindol-3(4H)-yl)methyl)phenyl)-4-methoxybenzamide], the Dmax turned out to be 44%. Further, under setting [1], the 50% degradation concentration (DC50) was above 1000 nM.

Regarding `O=C1CC[C@H](N2Cc3cc4c(cc3C2=O)OC[C@@H]2CN(CC3CCC5(CC3)COC5)CCN42)C(=O)N1` [Compound C35, (S)-3-((S)-3-((2-oxaspiro[3.5]nonan-7-yl)methyl)-8-oxo-1,2,3,4,4a,5,8,10-octahydro-9H-pyrazino[1′,2′:4,5][1,4]oxazino[2,3-f]isoindol-9-yl)piperidine-2,6-dione], the Dmax amounted to 66%. Moreover, the DC50 under setting [1] was determined as 933 nM.

In the case of `O=C1CC[C@H](N2Cc3cc4c(cc3C2=O)OC[C@@H]2CN(Cc3cccc(NC(=O)c5ccccc5Cl)c3)CCN42)C(=O)N1` [Compound C25, 2-chloro-N-(3-(((S)-9-((S)-2,6-dioxopiperidin-3-yl)-8-oxo-1,2,4a,5,9,10-hexahydro-8H-pyrazino[1′,2′:4,5][1,4]oxazino[2,3-f]isoindol-3(4H)-yl)methyl)phenyl)benzamide], the Dmax was found to be 45%. Further, under setting [1], the DC50 is above 1000 nM.

Take `O=C1CC[C@H](N2Cc3cc4c(cc3C2=O)OC[C@@H]2CN(Cc3cccc(NS(=O)(=O)c5ccccc5)c3)CCN42)C(=O)N1` [Compound C28, N-(3-(((S)-9-((S)-2,6-dioxopiperidin-3-yl)-8-oxo-1,2,4a,5,9,10-hexahydro-8H-pyrazino[1′,2′:4,5][1,4]oxazino[2,3-f]isoindol-3(4H)-yl)methyl)phenyl)benzenesulfonamide]: the Dmax turned out to be 11%. For the same molecule, the DC50 under setting [1] was above 1000 nM.

Regarding `O=C1CCC(N2Cc3cc4c(cc3C2=O)OC[C@@H]2CN(CC3CCCCC3)CCN42)C(=O)N1` (stereo partly drawn) [Compound C2, 3-((S)-3-(cyclohexylmethyl)-8-oxo-1,2,3,4,4a,5,8,10-octahydro-9H-pyrazino[1′,2′:4,5][1,4]oxazino[2,3-f]isoindol-9-yl)piperidine-2,6-dione], the maximal degradation (Dmax) came to 56%. Besides, under setting [1], the DC50 turned out to be 1400 nM.

For the molecule `CC(=O)N1CC2(CCC(CN3CCN4c5cc6c(cc5OC[C@@H]4C3)C(=O)N(C3CCC(=O)NC3=O)C6)CC2)C1` (stereo partly drawn) [Compound C6, 3-((S)-3-((2-acetyl-2-azaspiro[3.5]nonan-7-yl)methyl)-8-oxo-1,2,3,4,4a,5,8,10-octahydro-9H-pyrazino[1′,2′:4,5][1,4]oxazino[2,3-f]isoindol-9-yl)piperidine-2,6-dione], the Dmax came to 62%. For the same molecule, the DC50 under setting [1] was found to be 330 nM.

For `CCCN1CCN2c3cc4c(cc3OC[C@@H]2C1)C(=O)N(C1CCC(=O)NC1=O)C4` (stereo partly drawn) [Compound C3, 3-((S)-8-oxo-3-385.21propyl-1,2,3,4,4a,5,8,10-octahydro-9H-pyrazino[1′,2′:4,5][1,4]oxazino[2,3-f]isoindol-9-yl)piperidine-2,6-dione], the maximal degradation (Dmax) stood at 58%. In addition, the 50% degradation concentration (DC50) under setting [1] was above 2000 nM.

For `O=C1CCC(N2Cc3cc4c(cc3C2=O)OC[C@@H]2CN(CC3CCN(c5ccccc5)CC3)CCN42)C(=O)N1` (stereo partly drawn) [Compound C7, 3-((S)-8-oxo-3-((1-phenylpiperidin-4-yl)methyl)-1,2,3,4,4a,5,8,10-octahydro-9H-pyrazino[1′,2′:4,5][1,4]oxazino[2,3-f]isoindol-9-yl)piperidine-2,6-dione], the Dmax was found to be 50%. Moreover, the DC50 under setting [1] amounted to 320 nM.

As for `CC1(C)CCC(CN2CCN3c4cc5c(cc4OC[C@@H]3C2)C(=O)N([C@H]2CCC(=O)NC2=O)C5)CC1` [Compound C34, (S)-3-((S)-3-((4,4-dimethylcyclohexyl)methyl)-8-oxo-1,2,3,4,4a,5,8,10-octahydro-9H-pyrazino[1′,2′:4,5][1,4]oxazino[2,3-f]isoindol-9-yl)piperidine-2,6-dione], the greatest degradation seen (Dmax) stood at 68%. Moreover, the DC50 under setting [1] is 414 nM.

On to `O=C1CCC(N2Cc3cc4c(cc3C2=O)OC[C@@H]2CN(CC3CCCC3)CCN42)C(=O)N1` (stereo partly drawn) [Compound C4, 3-((S)-3-(cyclopentylmethyl)-8-oxo-1,2,3,4,4a,5,8,10-octahydro-9H-pyrazino[1′,2′:4,5][1,4]oxazino[2,3-f]isoindol-9-yl)piperidine-2,6-dione], for which the maximal degradation (Dmax) was 61%. Moreover, the half-maximal degradation concentration (DC50) under setting [1] was found to be 430 nM.

As for `CC(=O)N1CCC(CCN2CCN3c4cc5c(cc4OC[C@@H]3C2)C(=O)N(C2CCC(=O)NC2=O)C5)CC1` (stereo partly drawn) [Compound C5, 3-((S)-3-(2-(1-acetylpiperidin-4-yl)ethyl)-8-oxo-1,2,3,4,4a,5,8,10-octahydro-9H-pyrazino[1′,2′:4,5][1,4]oxazino[2,3-f]isoindol-9-yl)piperidine-2,6-dione], the greatest degradation seen (Dmax) stood at 38%. Further, under setting [1], the 50% degradation concentration (DC50) is above 2000 nM.

With `O=C1CC[C@H](N2Cc3cc4c(cc3C2=O)OC[C@@H]2CN(CC3CCCC3)CCN42)C(=O)N1` [Compound C29, (S)-3-((S)-3-(cyclopentylmethyl)-8-oxo-1,2,3,4a,5,8,10-octahydro-9H-pyrazino[1′,2′:4,5][1,4]oxazino[2,3-f]isoindol-9-yl)piperidine-2,6-dione], the Dmax is 61%. In addition, the half-maximal degradation concentration (DC50) under setting [1] is 402 nM.

As for `O=C1CC[C@H](N2Cc3cc4c(cc3C2=O)OC[C@@H]2CN(CCC3CCCCC3)CCN42)C(=O)N1` [Compound C32, (S)-3-((S)-3-(2-cyclohexylethyl)-8-oxo-1,2,3,4,4a,5,8,10-octahydro-9H-pyrazino[1′,2′:4,5][1,4]oxazino[2,3-f]isoindol-9-yl)piperidine-2,6-dione], the Dmax stood at 71%. In addition, the DC50 under setting [1] was determined as 324 nM.

Regarding `Cc1ccc(C(=O)Nc2cccc(CN3CCN4c5cc6c(cc5OC[C@@H]4C3)C(=O)N([C@H]3CCC(=O)NC3=O)C6)c2)cc1` [Compound C23, N-(3-(((S)-9-((S)-2,6-dioxopiperidin-3-yl)-8-oxo-1,2,4a,5,9,10-hexahydro-8H-pyrazino[1′,2′:4,5][1,4]oxazino[2,3-f]isoindol-3(4H)-yl)methyl)phenyl)-4-methylbenzamide], the Dmax came out at 77%. Also, the half-maximal degradation concentration (DC50) under setting [1] is 18 nM.

Consider `Cn1cc(-c2cccc(CN3CCN4c5cc6c(cc5OC[C@@H]4C3)C(=O)N([C@H]3CCC(=O)NC3=O)C6)c2)cn1` [Compound C20, (S)-3-((S)-3-(3-(1-methyl-1H-pyrazol-4-yl)benzyl)-8-oxo-1,2,3,4,4a,5,8,10-octahydro-9H-pyrazino[1′,2′:4,5][1,4]oxazino[2,3-f]isoindol-9-yl)piperidine-2,6-dione], for which the maximal degradation (Dmax) turned out to be 27%. In addition, under setting [1], the half-maximal degradation concentration (DC50) was above 10000 nM.

With `O=C1CC[C@H](N2Cc3cc4c(cc3C2=O)OC[C@@H]2CN(Cc3cccc(NC(=O)c5ccc(Cl)cc5)c3)CCN42)C(=O)N1` [Compound C24, 4-chloro-N-(3-(((S)-9-((S)-2,6-dioxopiperidin-3-yl)-8-oxo-1,2,4a,5,9,10-hexahydro-8H-pyrazino[1′,2′:4,5][1,4]oxazino[2,3-f]isoindol-3(4H)-yl)methyl)phenyl)benzamide], the maximal degradation (Dmax) was found to be 77%. Also, the 50% degradation concentration (DC50) under setting [1] was found to be 25 nM.

Consider `O=C1CCC(N2Cc3cc(C4CCN(Cc5ccccc5)CC4)ccc3C2=O)C(=O)N1` (centres unmarked) [DKY709], for which, under setting [1], the Dmax was determined as 67% and the DC50 stood at 62 nM.

For `COc1ccc(C(=O)Nc2cccc(CN3CCN4c5cc6c(cc5OC[C@@H]4C3)C(=O)N([C@H]3CCC(=O)NC3=O)C6)c2)cc1` [Compound C21, N-(3-(((S)-9-((S)-2,6-dioxopiperidin-3-yl)-8-oxo-1,2,4a,5,9,10-hexahydro-8H-pyrazino[1′,2′:4,5][1,4]oxazino[2,3-f]isoindol-3(4H)-yl)methyl)phenyl)-4-methoxybenzamide], the Dmax worked out at 85%. Under setting [1], the DC50 amounted to 9 nM.
